“Also recorded” adds a separate entry of the source.
Tested on: dopaminergic neurons in zebrafish embryos
Assay: MPTP neurotoxicity and neuroprotection in zebrafish embryos, whole mount in situ hybridization with tyrosine hydroxylase probe
Type: in vivo, zebrafish (Danio rerio)
Conditions: for protection of neurons from MPTP-induced damage: coculture/coincubation of embryos with MPTP 10 μg/mL (43 μM)
Experimental: Mating pairs of adult zebrafish are placed in mating cages in the evening. The following morning, eggs are collected from the bottom of the mating cage and fertile embryos are placed in fresh fish water. At the end of the day, (embryos should be at the late gastrulation stage) phenylthiourea (PTU, Sigma-Aldrich) is added to a final concentration of 0.003% to prevent formation of pigment. At approximately 24 hours past fertilization (hpf), embryos are transferred to a 24 or 96 well plate for treatment in different concentrations of neurotoxins. Zebrafish embryos at this stage in development have completed much of their brain development and primary neurogenesis (Kimmel, et al., 1995). Motor neurons and some dopaminergic neurons are detectable at this stage (Eisen, et al., 1986; Guo, et al., 1999).
Initial concentrations of neurotoxins, including MPTP, hydroxydopamine, NMDA and THA (all purchased from Sigma-Aldrich), are determined based on the concentrations administered to goldfish (Goping, et al., 1995) and that used in cultured spinal cord explant experiments (Rothstein, et al., 1993; Annis and Vaugn, 1998). One of skill can adjust the concentrations depending on the level of neuronal damage desired and the time frame for neuronal damage.
After embryos are secured in plates with lids, plates are transferred to an incubator, preset to 28.5° C., the optimal temperature for zebrafish development. At different time points (1, 2, and 3 days after treatment), untreated embryos and embryos treated with MPTP or hydroxydopamine are fixed in 4% paraformaldehyde and prepared for in situ hybridization and/or immunohistochemistry.
In situ hybridization is performed as described by Thisse, et al. (1993). A plasmid containing a partial cDNA sequence encoding tyrosine hydroxylase was obtained from A. Rosenthal (Guo, et al., 1999). An antisense RNA probe to this gene can be synthesized by in vitro transcription, incorporating digoxygenin-labeled UTP (Roche Molecular Biochemicals). Embryos are hybridized with probe overnight at 70 degrees in 50% formamide buffer. After several washes, embryos are incubated overnight with an antibody to digoxygenin conjugated to alkaline phosphatase (Roche Molecular Biochemicals). […]
This study is performed essentially as described above, except that neuroprotective drugs (levodopa, deprenyl, and D-AP5, Sigma-Aldrich) are added to the embryo cultures at selected time points, both concurrently with neurotoxins and after neurotoxins have exerted their effects. Initial concentrations are determined based on that used in goldfish and tissue culture expeirments. Again, results are measured by examination of neurons in both a qualitative and quantitative manner, as described above. […]

SMILES	effect on non-dopaminergic cell populations (MPTP 10 μg/mL (43 μM), 5 day old embryo, tyrosine hydroxylase in situ hybridization (FIG. 2))	effect on dopaminergic neurons / dopaminergic populations (MPTP 10 μg/mL (about 43 μM), embryos soaked, 5 day old embryo, tyrosine hydroxylase in situ hybridization (FIG. 2))	protection of neurons from MPTP-induced damage	protection of neurons from MPTP-induced damage (listed as deprenyl)
CN1CC=C(c2ccccc2)CC1 [MPTP, 1-methyl-4-phenyl-1,2,3,6-tetrahydropyridine]	unchanged	destroys dopaminergic populations; also recorded: significantly reduced	–	–
C#CCN(C)[C@H](C)Cc1ccccc1 [L-deprenyl]	–	–	MPTP-induced damage can be prevented	protects neurons

From patent publication US20090181392A1, “Transgenic Zebrafish Models for Neurodegenerative Diseases” (priority 2001, published 2009)
